According to ChEMBL document CHEMBL3045439, “Isoforms of the heteropteran Nezara viridula ecdysone receptor: protein characterisation, RH5992 insecticide binding and homology modelling” (Pest Manag Sci, 2011):

Assays:
Assay type in all cases: protein-complex assay
Ecdysone receptor [1] = molecular target: T1, Ecdysone receptor (Drosophila melanogaster, UniProt P20153+P34021); test: Binding affinity to Drosophila melanogaster EcR
T1 sequence (P34021 whole entry): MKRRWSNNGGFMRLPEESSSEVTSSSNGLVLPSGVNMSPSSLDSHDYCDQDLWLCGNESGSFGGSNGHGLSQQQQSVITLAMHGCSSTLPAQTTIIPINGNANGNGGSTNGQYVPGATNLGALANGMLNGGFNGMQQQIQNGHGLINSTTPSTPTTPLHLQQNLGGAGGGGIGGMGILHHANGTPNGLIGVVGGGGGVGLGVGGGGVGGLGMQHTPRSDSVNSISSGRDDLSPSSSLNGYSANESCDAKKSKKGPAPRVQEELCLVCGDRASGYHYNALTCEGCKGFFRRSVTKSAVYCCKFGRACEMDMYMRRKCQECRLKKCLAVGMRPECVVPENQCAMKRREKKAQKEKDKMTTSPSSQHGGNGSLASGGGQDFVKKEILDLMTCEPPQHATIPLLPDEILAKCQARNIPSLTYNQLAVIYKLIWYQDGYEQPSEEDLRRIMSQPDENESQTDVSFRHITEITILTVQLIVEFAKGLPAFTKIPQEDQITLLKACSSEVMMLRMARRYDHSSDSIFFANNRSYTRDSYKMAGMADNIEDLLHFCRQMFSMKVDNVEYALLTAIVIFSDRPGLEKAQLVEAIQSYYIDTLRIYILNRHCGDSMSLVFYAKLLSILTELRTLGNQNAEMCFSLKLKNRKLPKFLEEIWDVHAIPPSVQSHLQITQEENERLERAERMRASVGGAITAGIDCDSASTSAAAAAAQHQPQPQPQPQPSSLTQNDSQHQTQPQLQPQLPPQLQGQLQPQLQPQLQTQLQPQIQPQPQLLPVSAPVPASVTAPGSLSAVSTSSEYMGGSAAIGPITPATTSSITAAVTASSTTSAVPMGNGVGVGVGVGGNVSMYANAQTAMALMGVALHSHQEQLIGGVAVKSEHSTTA
T1 sequence (P20153 whole entry): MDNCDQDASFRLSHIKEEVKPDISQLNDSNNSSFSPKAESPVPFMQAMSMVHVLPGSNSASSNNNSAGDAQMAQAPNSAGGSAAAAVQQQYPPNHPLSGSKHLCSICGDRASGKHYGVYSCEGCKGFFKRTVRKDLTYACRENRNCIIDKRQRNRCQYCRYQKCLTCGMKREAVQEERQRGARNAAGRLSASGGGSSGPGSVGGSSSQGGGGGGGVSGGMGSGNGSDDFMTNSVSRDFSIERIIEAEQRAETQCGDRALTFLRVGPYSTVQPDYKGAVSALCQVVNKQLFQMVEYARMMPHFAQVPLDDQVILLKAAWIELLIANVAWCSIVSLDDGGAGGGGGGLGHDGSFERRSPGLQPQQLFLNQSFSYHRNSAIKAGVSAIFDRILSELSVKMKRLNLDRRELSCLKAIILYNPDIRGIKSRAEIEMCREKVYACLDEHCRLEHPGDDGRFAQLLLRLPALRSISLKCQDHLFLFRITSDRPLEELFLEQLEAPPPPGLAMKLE

Ecdysone receptor [2] = molecular target: T2, Ecdysone receptor (Nezara viridula, UniProt E5L6Y0+E5L6Y1); test: Displacement of [3H]PonA from recombinant Nezara viridula EcR10
T2 sequence (E5L6Y1 whole entry): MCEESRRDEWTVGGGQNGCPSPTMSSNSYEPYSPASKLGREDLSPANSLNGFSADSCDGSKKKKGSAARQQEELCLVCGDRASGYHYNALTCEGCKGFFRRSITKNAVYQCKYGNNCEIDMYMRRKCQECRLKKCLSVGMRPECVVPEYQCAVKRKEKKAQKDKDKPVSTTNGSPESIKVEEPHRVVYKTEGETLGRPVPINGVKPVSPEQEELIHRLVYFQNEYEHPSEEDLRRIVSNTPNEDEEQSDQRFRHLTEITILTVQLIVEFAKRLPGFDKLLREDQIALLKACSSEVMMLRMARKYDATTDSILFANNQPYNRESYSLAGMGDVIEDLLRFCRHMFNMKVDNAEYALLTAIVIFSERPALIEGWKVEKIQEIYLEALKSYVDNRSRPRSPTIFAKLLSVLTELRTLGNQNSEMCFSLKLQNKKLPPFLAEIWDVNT
T2 sequence (E5L6Y0 whole entry): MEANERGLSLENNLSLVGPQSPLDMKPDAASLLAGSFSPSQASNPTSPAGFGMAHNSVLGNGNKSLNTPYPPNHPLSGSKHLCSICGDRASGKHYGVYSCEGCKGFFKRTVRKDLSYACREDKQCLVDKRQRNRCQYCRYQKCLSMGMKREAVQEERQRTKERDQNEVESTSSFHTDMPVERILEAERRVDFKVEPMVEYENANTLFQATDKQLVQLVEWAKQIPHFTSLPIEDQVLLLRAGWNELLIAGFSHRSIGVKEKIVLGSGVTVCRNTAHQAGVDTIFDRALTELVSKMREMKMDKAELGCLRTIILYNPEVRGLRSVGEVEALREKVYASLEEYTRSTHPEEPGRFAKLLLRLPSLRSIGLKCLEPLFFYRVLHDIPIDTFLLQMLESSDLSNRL

Ecdysone receptor [3] = molecular target: T3, Ecdysone receptor (Heliothis virescens, UniProt O18473+Q7SIF6); test: Binding affinity to Heliothis virescens (tobacco budworm) EcR
T3 sequence (O18473 whole entry): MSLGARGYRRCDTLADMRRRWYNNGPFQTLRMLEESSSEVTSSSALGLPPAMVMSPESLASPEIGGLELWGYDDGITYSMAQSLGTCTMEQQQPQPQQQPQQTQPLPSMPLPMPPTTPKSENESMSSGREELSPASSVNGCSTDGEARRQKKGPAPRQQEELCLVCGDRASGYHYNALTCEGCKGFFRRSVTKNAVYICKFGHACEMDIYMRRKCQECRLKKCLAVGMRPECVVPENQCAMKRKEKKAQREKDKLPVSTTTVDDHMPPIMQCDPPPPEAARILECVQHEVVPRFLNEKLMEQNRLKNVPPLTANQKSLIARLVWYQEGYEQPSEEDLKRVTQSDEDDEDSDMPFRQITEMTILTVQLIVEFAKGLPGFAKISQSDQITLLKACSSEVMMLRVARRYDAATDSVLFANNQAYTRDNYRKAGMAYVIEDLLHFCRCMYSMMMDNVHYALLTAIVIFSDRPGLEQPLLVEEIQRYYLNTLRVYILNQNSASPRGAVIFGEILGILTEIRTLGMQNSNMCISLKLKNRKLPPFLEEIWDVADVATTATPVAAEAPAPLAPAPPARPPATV
T3 sequence (Q7SIF6 whole entry): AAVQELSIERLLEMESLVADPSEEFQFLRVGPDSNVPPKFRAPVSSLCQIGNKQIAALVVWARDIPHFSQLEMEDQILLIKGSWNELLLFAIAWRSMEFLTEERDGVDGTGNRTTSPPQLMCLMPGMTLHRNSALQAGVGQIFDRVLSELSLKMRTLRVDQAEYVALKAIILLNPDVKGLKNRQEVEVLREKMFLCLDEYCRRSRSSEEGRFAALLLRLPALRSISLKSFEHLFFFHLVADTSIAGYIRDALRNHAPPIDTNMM

IC50 (Ecdysone receptor [1]) [nM] | SMILES | IC50 (Ecdysone receptor [2]) [nM] | Ki (Ecdysone receptor [2]) [nM] | Ki (Ecdysone receptor [1]) [nM] | Ki (Ecdysone receptor [3]) [nM]
45.7 | CC(C)(O)CC[C@@H](O)[C@](C)(O)[C@H]1CC[C@@]2(O)C3=CC(=O)[C@@H]4C[C@@H](O)[C@@H](O)C[C@]4(C)[C@H]3CC[C@]12C [20-HYDROXYECDYSONE] | 3000 | 2500 |  | 
 | CCc1ccc(C(=O)NN(C(=O)c2cc(C)cc(C)c2)C(C)(C)C)cc1 [TEBUFENOZIDE] | 20000 | 16800 | 251 | 3.16
